Assays:
Meloidogyne incognita [1] = assay: Example A: Meloidogyne incognita test (gall formation on lettuce roots in sand); type: in vivo; details: nematicidal action by gall formation, 100% = no galls
Text: (§1) • The expected activity for a given combination of two active ingredients can be calculated as follows, according to S. R. Colby (“Calculating Synergistic and Antagonistic Responses of Herbicide Combinations”, Weeds 15, 20-22, 1967): • If • X is the kill rate, expressed as % of the untreated control, when using active ingredient A at an application rate of m g/ha or in a concentration of m ppm, • Y is the kill rate, expressed as % of the untreated control, when using active ingredient B at an application rate of n g/ha or in a concentration of n ppm and • E is the kill rate, expressed as % of the untreated control, when using active ingredients A and B at application rates of m and n g/ha or in a concentration of m and n ppm, • then
(§2) [formula] • If the actual kill rate is greater than the calculated kill rate (E), the action of the combination is superadditive, i.e. a synergistic effect is present.
(§3) Meloidogyne incognita Test
(§4) • Solvent: 125.0 parts by weight of acetone
(§5) To produce an appropriate active ingredient formulation, 1 part by weight of active ingredient is mixed with the stated amount of solvent and the concentrate is diluted to the desired concentration with water.
(§6) Vessels are filled with sand, active ingredient solution, an egg/larvae suspension of the southern root-knot nematode (Meloidogyne incognita) and lettuce seeds. The lettuce seeds germinate and the plants develop. The galls develop on the roots.
(§7) After the desired period of time, the nematicidal action is determined in % by the gall formation. 100% means that no galls were found; 0% means that the number of galls on the treated plants corresponds to the untreated control. The values ascertained are entered into Colby's formula.

Meloidogyne incognita [2] = assay: Example B: Meloidogyne incognita test (gall formation on lettuce roots in sand); type: in vivo; details: nematicidal action by gall formation, 100% = no galls
Text: as §1, §2, §3, §4, §5, §6, §7

Structure (SMILES)	Effect in % after 14 days (Meloidogyne incognita [1]; 3 ppm) [%]	Effect in % after 14 days (Meloidogyne incognita [1]; 6 ppm) [%]	Effect in % after 14 days (Meloidogyne incognita [1]; 12 ppm) [%]	Effect in % after 14 days (Meloidogyne incognita [2]; 0.4 ppm) [%]	Effect in % after 14 days (Meloidogyne incognita [2]; 0.8 ppm) [%]	Effect in % after 14 days (Meloidogyne incognita [2]; 1.6 ppm) [%]	Effect in % after 14 days (Meloidogyne incognita [1]; 1.2 ppm) [%]	Effect in % after 14 days (Meloidogyne incognita [1]; 2.4 ppm) [%]	Effect in % after 14 days (Meloidogyne incognita [1]; 4.8 ppm) [%]	Effect in % after 14 days (Meloidogyne incognita [2]; 3.2 ppm) [%]	Effect in % after 14 days (Meloidogyne incognita [2]; 6.4 ppm) [%]
O=C(Nc1ccn(-c2c(F)cccc2F)n1)c1ccccc1C(F)(F)F [Compound (B-1)]	0	0	70								
Cc1cc(Cl)cc(C)c1C1=C(O)C2(CCC3(CC2)OCCO3)NC1=O [Compound (I-2)]				0	0	0	0	0	0		
c1ccc(-c2noc(-c3cccs3)n2)cc1 [Tioxazafen (B-2), Tioxazafen]						0				0	70

— patent publication US12089597B2, “Active ingredient combinations with insecticidal, nematicidal and acaricidal properties” (BAYER AKTIENGESELLSCHAFT, priority 2018, dated 2024)
